Organism: Rattus norvegicus
Experiment: DrugMatrix - Regimen: Daily Repeat
Type: toxicity, organism-based, Sprague-Dawley
Set-up: regimen Daily Repeat, gender Male, age 6-8 weeks
Conditions: in vivo, po, route oral GAVAGE, […]; for ABSOLUTE BASOPHIL / ABSOLUTE EOSINOPHIL / ABSOLUTE LYMPHOCYTE / ABSOLUTE MONOCYTE / ABSOLUTE SEGMENTED NEUTROPHIL / BASOPHIL / EOSINOPHIL / ERYTHROCYTE COUNT / HEMATOCRIT / HEMOGLOBIN / LEUKOCYTE COUNT / LYMPHOCYTE / MEAN CORPUSCULAR HEMOGLOBIN / MEAN CORPUSCULAR HEMOGLOBIN CONCENTRATION / MEAN CORPUSCULAR VOLUME / MONOCYTE / NEUTROPHIL / NUCLEATED RED BLOOD CELLS / PLATELET COUNT: tissue Blood; for ALANINE AMINOTRANSFERASE / ALBUMIN / ALKALINE PHOSPHATASE / ASPARTATE AMINOTRANSFERASE / BLOOD UREA NITROGEN / CARBON DIOXIDE / CHLORIDE / CHOLESTEROL / CREATINE PHOSPHOKINASE / CREATININE / GLUCOSE / LACTATE DEHYDROGENASE / LIPASE / PHOSPHORUS / POTASSIUM / SODIUM / TOTAL BILIRUBIN / TOTAL PROTEIN / URIC ACID: tissue Plasma
[1] = 0 mg/kg, 72 h, dose level Control, time 3 day
[2] = 0 mg/kg, 120 h, dose level Control, time 5 day
[3] = 100 mg/kg, 72 h, dose level Low, time 3 day

In the case of `CC(=O)Nc1cccc(O)c1` [METACETAMOL], the “ABSOLUTE BASOPHIL” value [1] was 0 CELLS/uL, the “ABSOLUTE EOSINOPHIL” value [1] was 0 CELLS/uL and the “ABSOLUTE LYMPHOCYTE” value [1] was 14687.67 CELLS/uL. For the same molecule, the “ABSOLUTE MONOCYTE” value [1] was 164 CELLS/uL, the “ABSOLUTE SEGMENTED NEUTROPHIL” value [1] was 1748.33 CELLS/uL and the BASOPHIL [1] was 0%. The EOSINOPHIL [1] was 0%, the “ERYTHROCYTE COUNT” value [1] was 5.51 x10E6/uL and the HEMATOCRIT [1] was 33.68%. For the same molecule, the HEMOGLOBIN [1] was 13.4 G/DL, the “LEUKOCYTE COUNT” value [1] was 16.6 x10E3/uL and the LYMPHOCYTE [1] was 88.83%. For the same molecule, the “MEAN CORPUSCULAR HEMOGLOBIN” value [1] was 24.47 pg, the “MEAN CORPUSCULAR HEMOGLOBIN CONCENTRATION” value [1] was 39.82 G/DL and the “MEAN CORPUSCULAR VOLUME” value [1] was 61.23 fL. The MONOCYTE [1] was 0.83%, the NEUTROPHIL [1] was 10.33% and the “NUCLEATED RED BLOOD CELLS” value [1] was 0 /100WBC. For the same molecule, the “PLATELET COUNT” value [1] was 1329.67 x10E3/uL, the “ALANINE AMINOTRANSFERASE” value [1] was 61.33 u/L and the ALBUMIN [1] was 4.18 G/DL. The “ALKALINE PHOSPHATASE” value [1] was 332.5 u/L, the “ASPARTATE AMINOTRANSFERASE” value [1] was 98.33 u/L and the “BLOOD UREA NITROGEN” value [1] was 15.83 mg/dL. The “CARBON DIOXIDE” value [1] was 27.83 mmol/L, the CHLORIDE [1] was 100 MEQ/L and the CHOLESTEROL [1] was 76.17 mg/dL. For the same molecule, the “CREATINE PHOSPHOKINASE” value [1] was 729.17 u/L, the CREATININE [1] was 0.21 mg/dL and the GLUCOSE [1] was 151.83 mg/dL. For the same molecule, the “LACTATE DEHYDROGENASE” value [1] was 484.67 u/L, the LIPASE [1] was 10 u/L and the PHOSPHORUS [1] was 11.3 mg/dL. The POTASSIUM [1] was 6.1 MEQ/L, the SODIUM [1] was 142.9 MEQ/L and the “TOTAL BILIRUBIN” value [1] was 0.23 mg/dL. For the same molecule, the “TOTAL PROTEIN” value [1] was 5.68 G/DL, the “URIC ACID” value [1] was 1.75 mg/dL and the “ABSOLUTE BASOPHIL” value [2] was 0 CELLS/uL. The “ABSOLUTE EOSINOPHIL” value [2] was 58.67 CELLS/uL, the “ABSOLUTE LYMPHOCYTE” value [2] was 15950.83 CELLS/uL and the “ABSOLUTE MONOCYTE” value [2] was 172.5 CELLS/uL. For the same molecule, the “ABSOLUTE SEGMENTED NEUTROPHIL” value [2] was 2551.33 CELLS/uL, the BASOPHIL [2] was 0% and the EOSINOPHIL [2] was 0.33%. The “ERYTHROCYTE COUNT” value [2] was 5.5 x10E6/uL, the HEMATOCRIT [2] was 34.05% and the HEMOGLOBIN [2] was 13.42 G/DL. The “LEUKOCYTE COUNT” value [2] was 18.73 x10E3/uL, the LYMPHOCYTE [2] was 84.5% and the “MEAN CORPUSCULAR HEMOGLOBIN” value [2] was 24.42 pg. For the same molecule, the “MEAN CORPUSCULAR HEMOGLOBIN CONCENTRATION” value [2] was 39.42 G/DL, the “MEAN CORPUSCULAR VOLUME” value [2] was 61.97 fL and the MONOCYTE [2] was 1%. The NEUTROPHIL [2] was 14.17%, the “NUCLEATED RED BLOOD CELLS” value [2] was 0.33 /100WBC and the “PLATELET COUNT” value [2] was 1143.17 x10E3/uL. The “ALANINE AMINOTRANSFERASE” value [2] was 57 u/L, the ALBUMIN [2] was 4.17 G/DL and the “ALKALINE PHOSPHATASE” value [2] was 347.33 u/L. For the same molecule, the “ASPARTATE AMINOTRANSFERASE” value [2] was 93.67 u/L, the “BLOOD UREA NITROGEN” value [2] was 15.67 mg/dL and the “CARBON DIOXIDE” value [2] was 27.17 mmol/L. The CHLORIDE [2] was 104.33 MEQ/L, the CHOLESTEROL [2] was 69.5 mg/dL and the “CREATINE PHOSPHOKINASE” value [2] was 317.17 u/L. The CREATININE [2] was 0.2 mg/dL, the GLUCOSE [2] was 162.33 mg/dL and the “LACTATE DEHYDROGENASE” value [2] was 408.67 u/L. For the same molecule, the LIPASE [2] was 10.17 u/L, the PHOSPHORUS [2] was 11.08 mg/dL and the POTASSIUM [2] was 6.36 MEQ/L. The SODIUM [2] was 146.07 MEQ/L, the “TOTAL BILIRUBIN” value [2] was 0.22 mg/dL and the “TOTAL PROTEIN” value [2] was 5.92 G/DL. For the same molecule, the “URIC ACID” value [2] was 1.47 mg/dL, the “ABSOLUTE BASOPHIL” value [3] was 0 CELLS/uL and the “ABSOLUTE EOSINOPHIL” value [3] was 56.67 CELLS/uL. The “ABSOLUTE LYMPHOCYTE” value [3] was 16234.67 CELLS/uL, the “ABSOLUTE MONOCYTE” value [3] was 197 CELLS/uL and the “ABSOLUTE SEGMENTED NEUTROPHIL” value [3] was 1911.67 CELLS/uL. For the same molecule, the BASOPHIL [3] was 0%, the EOSINOPHIL [3] was 0.33% and the “ERYTHROCYTE COUNT” value [3] was 5.37 x10E6/uL. For the same molecule, the HEMATOCRIT [3] was 33.67%, the HEMOGLOBIN [3] was 13.43 G/DL and the “LEUKOCYTE COUNT” value [3] was 18.4 x10E3/uL. For the same molecule, the LYMPHOCYTE [3] was 88.33%, the “MEAN CORPUSCULAR HEMOGLOBIN” value [3] was 25 pg and the “MEAN CORPUSCULAR HEMOGLOBIN CONCENTRATION” value [3] was 39.93 G/DL. For the same molecule, the “MEAN CORPUSCULAR VOLUME” value [3] was 62.73 fL, the MONOCYTE [3] was 1% and the NEUTROPHIL [3] was 10.33%. For the same molecule, the “NUCLEATED RED BLOOD CELLS” value [3] was 0 /100WBC, the “PLATELET COUNT” value [3] was 1217 x10E3/uL and the “ALANINE AMINOTRANSFERASE” value [3] was 68.67 u/L. The ALBUMIN [3] was 4.23 G/DL, the “ALKALINE PHOSPHATASE” value [3] was 369.67 u/L and the “ASPARTATE AMINOTRANSFERASE” value [3] was 101.67 u/L. The “BLOOD UREA NITROGEN” value [3] was 14.67 mg/dL, the “CARBON DIOXIDE” value [3] was 31 mmol/L and the CHLORIDE [3] was 100.67 MEQ/L. The CHOLESTEROL [3] was 76.33 mg/dL, the “CREATINE PHOSPHOKINASE” value [3] was 371.33 u/L and the CREATININE [3] was 0.22 mg/dL. The GLUCOSE [3] was 142.67 mg/dL, the “LACTATE DEHYDROGENASE” value [3] was 561.67 u/L and the LIPASE [3] was 10.33 u/L. It also gave a PHOSPHORUS [3] of 11.3 mg/dL, a POTASSIUM [3] of 6.59 MEQ/L and an SODIUM [3] of 143.83 MEQ/L. For the same molecule, the “TOTAL BILIRUBIN” value [3] was 0.23 mg/dL, the “TOTAL PROTEIN” value [3] was 5.8 G/DL and the “URIC ACID” value [3] was 1.7 mg/dL.

From ChEMBL document CHEMBL3885881, “DrugMatrix”
